Holding throughout (assay): Kinase panel profiling at 1 µmol/L (MSA or IMAP), percentage inhibition
What all share (assay type): biochemical

Test [1] concerns the target T1, panel of 255 wild-type kinases (Homo sapiens, UniProt P36888).
T1 sequence (P36888 27-993): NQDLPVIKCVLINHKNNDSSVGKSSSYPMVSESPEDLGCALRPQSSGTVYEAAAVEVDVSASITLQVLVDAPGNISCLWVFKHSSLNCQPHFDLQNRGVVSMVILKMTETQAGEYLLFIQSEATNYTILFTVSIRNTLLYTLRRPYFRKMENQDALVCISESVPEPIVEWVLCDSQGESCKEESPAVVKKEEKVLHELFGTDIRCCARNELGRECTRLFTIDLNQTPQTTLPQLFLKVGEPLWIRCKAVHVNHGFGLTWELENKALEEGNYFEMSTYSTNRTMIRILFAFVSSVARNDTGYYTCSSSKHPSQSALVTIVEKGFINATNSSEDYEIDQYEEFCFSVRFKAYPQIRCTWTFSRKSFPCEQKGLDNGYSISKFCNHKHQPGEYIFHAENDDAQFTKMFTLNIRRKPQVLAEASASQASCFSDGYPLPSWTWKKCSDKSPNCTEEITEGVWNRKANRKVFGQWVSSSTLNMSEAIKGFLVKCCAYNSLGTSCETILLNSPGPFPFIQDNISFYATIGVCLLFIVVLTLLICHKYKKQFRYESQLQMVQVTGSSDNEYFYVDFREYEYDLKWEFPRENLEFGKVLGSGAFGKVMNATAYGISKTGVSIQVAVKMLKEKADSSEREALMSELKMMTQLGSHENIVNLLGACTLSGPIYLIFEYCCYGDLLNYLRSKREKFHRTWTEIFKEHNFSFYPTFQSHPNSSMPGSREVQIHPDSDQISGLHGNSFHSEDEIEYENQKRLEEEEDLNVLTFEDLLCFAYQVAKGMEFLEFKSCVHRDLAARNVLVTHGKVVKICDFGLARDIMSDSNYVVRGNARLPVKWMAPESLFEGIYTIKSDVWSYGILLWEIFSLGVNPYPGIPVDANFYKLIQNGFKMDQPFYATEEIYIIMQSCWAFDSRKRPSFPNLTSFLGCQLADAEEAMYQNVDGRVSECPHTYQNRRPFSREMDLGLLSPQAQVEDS
Particulars: kinase FLT3; 1 µmol/L single concentration; read-out: %-inhibition at 1 µmol/L, FLT3.

In test [2] the target is T2, panel of 255 wild-type kinases (Homo sapiens, UniProt Q96PN8).
T2 sequence (Q96PN8 1-268): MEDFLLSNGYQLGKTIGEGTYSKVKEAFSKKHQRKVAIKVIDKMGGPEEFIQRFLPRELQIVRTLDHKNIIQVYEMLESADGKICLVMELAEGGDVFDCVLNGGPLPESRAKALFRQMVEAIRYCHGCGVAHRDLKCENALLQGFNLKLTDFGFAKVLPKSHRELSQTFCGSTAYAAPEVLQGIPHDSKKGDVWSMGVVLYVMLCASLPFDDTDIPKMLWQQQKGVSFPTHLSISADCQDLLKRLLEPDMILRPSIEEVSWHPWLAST
Particulars: kinase TSSK3; 1 µmol/L single concentration; read-out: %-inhibition at 1 µmol/L, TSSK3.

In test [3] the target is panel of 255 wild-type kinases (Homo sapiens, UniProt Q9Y6E0). As to conditions: MST3; 1 µmol/L single concentration; read-out: %-inhibition, MST3.
The target in test [4] is T3, panel of 255 wild-type kinases (Homo sapiens, UniProt P29320).
T3 sequence (P29320 21-983): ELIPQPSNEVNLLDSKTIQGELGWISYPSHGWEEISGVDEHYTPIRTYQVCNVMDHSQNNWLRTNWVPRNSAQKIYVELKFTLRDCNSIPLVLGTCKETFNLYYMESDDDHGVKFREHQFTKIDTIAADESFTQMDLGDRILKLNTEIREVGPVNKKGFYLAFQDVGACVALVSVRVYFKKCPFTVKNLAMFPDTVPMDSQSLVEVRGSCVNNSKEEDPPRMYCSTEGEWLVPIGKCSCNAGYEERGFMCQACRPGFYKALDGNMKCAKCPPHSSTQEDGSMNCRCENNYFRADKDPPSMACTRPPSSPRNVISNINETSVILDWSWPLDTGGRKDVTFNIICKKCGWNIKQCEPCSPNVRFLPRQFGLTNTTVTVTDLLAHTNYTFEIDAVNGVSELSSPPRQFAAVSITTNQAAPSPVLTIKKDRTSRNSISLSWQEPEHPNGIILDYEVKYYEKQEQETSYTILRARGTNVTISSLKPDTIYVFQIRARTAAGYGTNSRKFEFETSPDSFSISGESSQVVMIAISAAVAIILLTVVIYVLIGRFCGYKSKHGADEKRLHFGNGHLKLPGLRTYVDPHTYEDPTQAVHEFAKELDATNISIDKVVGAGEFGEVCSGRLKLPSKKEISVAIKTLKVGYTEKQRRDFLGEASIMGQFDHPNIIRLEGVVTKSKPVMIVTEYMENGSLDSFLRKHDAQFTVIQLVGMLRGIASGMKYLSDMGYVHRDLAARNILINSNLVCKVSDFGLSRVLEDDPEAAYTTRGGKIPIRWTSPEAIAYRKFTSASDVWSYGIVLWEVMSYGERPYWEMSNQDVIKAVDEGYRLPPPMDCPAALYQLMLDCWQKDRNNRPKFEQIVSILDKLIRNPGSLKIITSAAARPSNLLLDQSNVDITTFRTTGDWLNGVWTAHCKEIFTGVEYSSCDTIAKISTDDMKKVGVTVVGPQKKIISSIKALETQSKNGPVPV
Particulars: kinase EPHA3; 1 µmol/L single concentration; read-out: %-inhibition at 1 µmol/L, EPHA3.

Test [5] deals with panel of 255 wild-type kinases (Homo sapiens, UniProt Q9Y2H1). As to conditions: NDR2; 1 µmol/L single concentration; read-out: %-inhibition, NDR2.
The target in test [6] is panel of 255 wild-type kinases (Homo sapiens, UniProt P11362). As to conditions: kinase FGFR1; 1 µmol/L single concentration; read-out: %-inhibition at 1 µmol/L, FGFR1.

Consider `Cc1nc(NC(=O)N2CCC[C@H]2C(N)=O)sc1-c1ccnc(C(C)(C)C(F)(F)F)c1` [alpelisib], for which the inhibition at 1 µM in test [1] was 6%; in test [2], 0.673%; in test [3], -4.63%; in test [4], -0.173%; in test [5], -2%; in test [6], 4.29%.
Consider `FC(F)(F)c1ccc(CNc2ccc(Cc3c[nH]c4ncc(Cl)cc34)cn2)cn1` [pexidartinib], for which the inhibition at 1 µM in test [1] was 55%; in test [2], 10%; in test [3], 5%; in test [4] it was 2.11%; in test [5] it was 8%; in test [6], 45%.
`CCc1nc(C(N)=O)c(Nc2ccc(N3CCC(N4CCN(C)CC4)CC3)c(OC)c2)nc1NC1CCOCC1` [gilteritinib]: the inhibition at 1 µM in test [1] came out at 99%; in test [2], 11%; in test [3], 5%; in test [4], 30%; in test [5] it was 66%; in test [6], 55%.
Take `O=C(Nc1cnn2ccc(N3CCC[C@@H]3c3cc(F)ccc3F)nc12)N1CC[C@H](O)C1` [larotrectinib]: the inhibition at 1 µM in test [1] is 6%; in test [2], 0.55%; in test [3], 1.65%; in test [4] it was 0.702%; in test [5] it was -4.33%; in test [6] it was -2%.

Source of the values: paper PMC9516332 (Frontiers in Oncology, 2022).
